Series [1] in a line: Molar enthalpy of transition or fusion. As to conditions: DSC.

Results on two compounds are retold here after the NIST ThermoML archive (doi:10.1021/je300044x).

SMILES strings stand for the structures. Numbers after ± are expanded uncertainties.

Regarding `CCn1cc[n+](C)c1.O=S(=O)([N-]S(=O)(=O)C(F)(F)F)C(F)(F)F`, the Normal melting temperature (Metastable crystal, visual observation) is -16.24 ± 2 °C.
For `NC(=O)c1cnccn1` [pyrazinecarboxamide], the Normal melting temperature (Crystal 1, DTA) is 188.27 ± 1.1 °C. The Triple point temperature (Crystal 2, DTA) was 420.36 ± 1.1 K. The entries for the “Molar enthalpy of transition or fusion” value in series [1] (Crystal 1) and in series [1] (Crystal 2) were 6.72 ± 0.194 kcal/mol and 0.39 ± 0.0359 kcal/mol, respectively.
